Source: paper PMC4775997, “Imidazopyridazine Inhibitors of Plasmodium falciparum Calcium-Dependent Protein Kinase 1 Also Target Cyclic GMP-Dependent Protein Kinase and Heat Shock Protein 90 To Kill the Parasite at Different Stages of Intracellular Development” (Antimicrobial Agents and Chemotherapy, 2016)
Where two headings read alike, the source gives them in different places.

Columns and labels:
[1] = target: PfHSP90-NTD (Plasmodium falciparum, UniProt Q8IC05); assay: Tryptophan fluorescence binding, PfHSP90 N-terminal domain; conditions: tryptophan fluorescence 346 nm; [SE] of triplicate measurements; read-out: Kd, PfHSP90-NTD
Description: PfCDPK1 and PfCDPK1 T145G proteins were produced using methods described elsewhere ([23]). The PfHSP90 N-terminal domain (NTD) comprises the first 223 amino acids of PfHSP90. This region was amplified from the full-length PfHSP90-pRSET-A construct ([32]) using the following primers: primer 7, […]; primer 8, […].
The PCR product was cloned into pRSET-A (Life Technologies) between the BamHI and XhoI sites. Positive clones were confirmed by restriction digestion and sequencing. The clone was transformed into Escherichia coli Rosetta(pLysS) cells, and protein was expressed by induction with 0.1 mM isopropyl β-D-1-thiogalactopyranoside (IPTG) at 37°C for 2 h. […]
Tryptophan fluorescence analysis was performed using a PerkinElmer LS55 luminescence spectrometer. […] Samples were excited at 280 nm, and tryptophan fluorescence measurements were carried out by scanning the emission spectrum in the wavelength range 300 to 400 nm. […] The difference in fluorescence intensity between protein alone and protein with various concentrations of 17-AAG or compound D was calculated and plotted against the different concentrations of the respective ligand used. The resultant hyperbolic curve was analyzed with GraphPad Prism software, using nonlinear regression analysis with single-site-specific binding as described previously ([32]).

[2] = target: PfHSP90 (Plasmodium falciparum, UniProt Q8IC05); assay: Tryptophan fluorescence binding, full-length PfHSP90; conditions: tryptophan fluorescence 346 nm; [SE] of triplicate measurements; read-out: Kd, full-length PfHSP90
Protocol: The PCR product was cloned into pRSET-A (Life Technologies) between the BamHI and XhoI sites. Positive clones were confirmed by restriction digestion and sequencing. The clone was transformed into Escherichia coli Rosetta(pLysS) cells, and protein was expressed by induction with 0.1 mM isopropyl β-D-1-thiogalactopyranoside (IPTG) at 37°C for 2 h. PfHSP90 proteins were purified using Ni-nitrilotriacetic acid (NTA) affinity chromatography (Qiagen) as described in the manufacturer's protocol.
Tryptophan fluorescence analysis was performed using a PerkinElmer LS55 luminescence spectrometer. […] The binding buffer used for the reaction contained 50 mM Tris-HCl, pH 7.4, and 1 mM EDTA. Samples were excited at 280 nm, and tryptophan fluorescence measurements were carried out by scanning the emission spectrum in the wavelength range 300 to 400 nm. A maximum wavelength (λmax) of 346 nm was selected for all the calculations. The slit widths of excitation and emission were set at 2.5 and 5 nm, respectively. The difference in fluorescence intensity between protein alone and protein with various concentrations of 17-AAG or compound D was calculated and plotted against the different concentrations of the respective ligand used. The resultant hyperbolic curve was analyzed with GraphPad Prism software, using nonlinear regression analysis with single-site-specific binding as described previously ([32]).

[3] = target: CDPK1 (Plasmodium falciparum, UniProt P62344); assay: biochemical; assay type: biochemical; conditions: read-out: Enzyme inhibition IC50, CDPK1
[4] = target: T1, PfPKG (Plasmodium falciparum, UniProt Q8I719); assay: Microfluidic fluorescent shift assay of cGMP-dependent protein kinase activity; assay type: biochemical
T1 construct: plasmids (pTrcHisC) encoding full-length PfPKG and PfPKG T618Q with N-terminal His tags; His tag (N); made in house; host or cells: E. coli Rosetta2(DE3)

[5] = system: P. falciparum 3D7; assay: Microscopic examination of Giemsa-stained smears (stage of action); conditions: for Stage of action (before or after DNA synthesis): Table S1, ring-stage parasites, 10x EC50 for 48 h; for Stage of action: ring stage parasites treated with 10 times the 96-h EC50 for 48 h
[6] = system: P. falciparum 3D7; assay: SYBR green I growth assay, wild-type parasites; assay type: cell-based, Plasmodium falciparum; conditions: for EC5048/EC5096 ratio: Table 1
[7] = system: 3D7 PKG T618Q; assay: microbe, parasite or virus in culture; assay type: cell-based, Plasmodium falciparum; conditions: for EC50: read-out: Parasite inhibition EC50, 3D7 PKG T618Q; for Ratio 3D7 PKG T618Q/3D7: Table S2
[8] = target: T2, PfPKG T618Q (Plasmodium falciparum, UniProt Q8I719, T618Q); assay: biochemical; assay type: biochemical
T2 construct: plasmids (pTrcHisC) encoding full-length PfPKG and PfPKG T618Q with N-terminal His tags; His tag (N); made in house; host or cells: E. coli Rosetta2(DE3)

[9] = system: 3D7 CDPK1 T145G-HA; assay: SYBR green assay, 3D7 CDPK1 T145G-HA line; assay type: cell-based; conditions: Plasmodium falciparum, 3D7, read-out: EC50, 3D7 CDPK1 T145G-HA
Protocol: (§1) Aliquots of 100 μl of P. falciparum cultures 24 h after erythrocyte invasion were transferred into 96-well culture dishes. Cells were incubated with inhibitors for 48 or 96 h (starting parasitemias were 0.3% and 0.03%, respectively). All drug treatments were carried out in duplicate at a final dimethyl sulfoxide (DMSO) concentration of 0.05%. After incubation, a modification of a previously described SYBR green assay was performed ([27]). Cells were lysed by the addition of 25 μl of buffer (20 mM Tris-HCl, pH 8.0, 2 mM EDTA, pH 8.0, 1.6% Triton X-100, 0.16% saponin, 10× SYBR green I [Life Technologies]). After incubation in the dark for 2 h, fluorescence of the samples was determined using a FLUOStar Omega plate reader (BMG Labtech) with excitation and emission filters of 485 nm and 520 nm, respectively. EC50s were calculated from a four-parameter logistical fit of the data using Prism software (GraphPad Software, Inc.).
(§2) Parasites expressing CDPK1 T145G and CDPK1 T145T were generated as described previously ([28]). Briefly, a region of homology to facilitate integration of the plasmid via single-crossover homologous recombination was amplified from P. falciparum 3D7 genomic DNA at 194 bp upstream of the ATG to bp 435 of the open reading frame using primers 1 and 2 for the wild-type (WT) version and primers 1 and 3 for the glycine version. […]

[10] = system: 3D7 CDPK1 T145T-HA; assay: SYBR green assay, 3D7 CDPK1 T145T-HA line; assay type: cell-based; conditions: Plasmodium falciparum, 3D7, read-out: EC50, 3D7 CDPK1 T145T-HA
Protocol: as §1, §2

[11] = read-out: Enzyme inhibition IC50, PKG
[12] = SYBR green I, 48 h incubation, mean of three independent experiments (SD), read-out: EC50 after treatment for 48 h
[13] = SYBR green I, 96 h incubation, mean of three independent experiments (SD), read-out: EC50 after treatment for 96 h
[14] = Table 2, SYBR green I, 96 h, single experiment, or mean (SD) of duplicate assays, read-out: Parasite inhibition EC50, 3D7
[15] = Table S1, single experiment with duplicate samples, or mean of triplicate experiments (SD), read-out: EC50 48 hours
[16] = Table 2, SYBR green I, 96 h, single experiment, or mean (SD) of duplicate assays
[17] = Table 2, ATP at Km 90 μM, read-out: Enzyme inhibition IC50, PKG T618Q
[18] = Table S1, single experiment with duplicate samples, or mean of triplicate experiments (SD), read-out: EC50 96 hours
[19] = Table S2, read-out: Enzyme inhibition IC50, PKG
[20] = Table S2, read-out: Enzyme inhibition IC50, PKG T618Q

CDPK1, sequence (P62344 whole entry): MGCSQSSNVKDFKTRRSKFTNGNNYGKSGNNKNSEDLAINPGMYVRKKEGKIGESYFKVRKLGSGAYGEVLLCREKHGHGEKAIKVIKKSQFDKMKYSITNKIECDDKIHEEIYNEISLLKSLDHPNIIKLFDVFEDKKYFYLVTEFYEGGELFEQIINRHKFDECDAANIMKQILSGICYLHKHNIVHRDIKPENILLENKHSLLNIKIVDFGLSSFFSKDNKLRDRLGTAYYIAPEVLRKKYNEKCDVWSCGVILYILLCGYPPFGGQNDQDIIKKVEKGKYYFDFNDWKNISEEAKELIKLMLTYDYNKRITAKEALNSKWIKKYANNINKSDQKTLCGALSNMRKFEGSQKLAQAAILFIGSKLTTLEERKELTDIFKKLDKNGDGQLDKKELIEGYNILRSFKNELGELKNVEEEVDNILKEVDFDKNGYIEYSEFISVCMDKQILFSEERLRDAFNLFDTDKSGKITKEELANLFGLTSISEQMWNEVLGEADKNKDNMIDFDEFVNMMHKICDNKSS
T2 sequence (Q8I719 whole entry T618Q): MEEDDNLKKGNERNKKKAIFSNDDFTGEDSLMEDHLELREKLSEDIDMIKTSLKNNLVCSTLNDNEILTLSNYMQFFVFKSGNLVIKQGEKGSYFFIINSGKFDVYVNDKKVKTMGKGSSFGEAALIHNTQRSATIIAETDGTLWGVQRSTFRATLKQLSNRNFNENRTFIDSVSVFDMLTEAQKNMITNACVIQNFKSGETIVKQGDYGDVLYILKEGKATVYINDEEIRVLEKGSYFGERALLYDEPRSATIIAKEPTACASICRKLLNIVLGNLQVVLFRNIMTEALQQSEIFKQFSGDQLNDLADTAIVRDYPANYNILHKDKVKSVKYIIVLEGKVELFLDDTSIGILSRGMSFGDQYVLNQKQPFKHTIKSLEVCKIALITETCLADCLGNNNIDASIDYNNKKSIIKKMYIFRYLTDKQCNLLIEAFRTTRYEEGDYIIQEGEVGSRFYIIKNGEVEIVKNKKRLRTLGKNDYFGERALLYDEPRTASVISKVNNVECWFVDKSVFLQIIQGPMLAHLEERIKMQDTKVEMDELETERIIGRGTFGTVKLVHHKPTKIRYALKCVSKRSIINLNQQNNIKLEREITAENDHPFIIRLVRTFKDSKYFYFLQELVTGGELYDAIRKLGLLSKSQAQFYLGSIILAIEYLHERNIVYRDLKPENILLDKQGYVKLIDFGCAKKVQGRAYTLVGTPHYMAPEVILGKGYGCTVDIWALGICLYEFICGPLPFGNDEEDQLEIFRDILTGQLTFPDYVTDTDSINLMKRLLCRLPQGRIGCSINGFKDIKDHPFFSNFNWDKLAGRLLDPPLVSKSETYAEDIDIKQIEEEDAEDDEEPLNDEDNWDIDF
PfHSP90, sequence (Q8IC05 entry or part of it): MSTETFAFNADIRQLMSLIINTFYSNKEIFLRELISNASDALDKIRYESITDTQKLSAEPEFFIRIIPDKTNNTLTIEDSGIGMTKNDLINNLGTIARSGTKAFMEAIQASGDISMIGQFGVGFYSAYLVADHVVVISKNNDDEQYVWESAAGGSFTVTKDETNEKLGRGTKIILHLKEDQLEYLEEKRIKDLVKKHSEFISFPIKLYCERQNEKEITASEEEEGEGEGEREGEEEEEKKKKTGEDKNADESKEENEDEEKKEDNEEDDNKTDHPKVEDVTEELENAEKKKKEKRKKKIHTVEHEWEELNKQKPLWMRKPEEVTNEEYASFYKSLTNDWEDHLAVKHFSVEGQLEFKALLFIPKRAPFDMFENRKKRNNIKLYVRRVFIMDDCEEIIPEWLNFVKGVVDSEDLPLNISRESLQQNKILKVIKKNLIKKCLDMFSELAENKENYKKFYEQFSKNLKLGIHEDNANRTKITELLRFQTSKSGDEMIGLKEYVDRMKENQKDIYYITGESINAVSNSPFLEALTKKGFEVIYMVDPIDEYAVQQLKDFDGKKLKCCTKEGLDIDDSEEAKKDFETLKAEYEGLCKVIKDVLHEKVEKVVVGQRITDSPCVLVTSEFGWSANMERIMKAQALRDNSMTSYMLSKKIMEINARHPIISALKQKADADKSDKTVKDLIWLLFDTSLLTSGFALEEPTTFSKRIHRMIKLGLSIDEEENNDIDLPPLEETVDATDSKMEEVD
PfHSP90-NTD, sequence (Q8IC05 entry or part of it): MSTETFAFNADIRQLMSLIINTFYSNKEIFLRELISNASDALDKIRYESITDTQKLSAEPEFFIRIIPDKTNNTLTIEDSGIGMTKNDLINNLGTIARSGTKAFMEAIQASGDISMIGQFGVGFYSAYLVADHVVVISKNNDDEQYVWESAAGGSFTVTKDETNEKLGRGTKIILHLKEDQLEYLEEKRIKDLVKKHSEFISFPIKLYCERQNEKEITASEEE

SMILES	IC50 ([3]; Table 2)	Stage of action (before or after DNA synthesis) [5]	Stage of action [5]	EC5048/EC5096 ratio [6]	ratio EC5048:EC5096 ([6]; Table S1)	3D7 PKG T618Q/3D7 EC50 ratio ([7]; Table 2)	Ratio 3D7 PKG T618Q/3D7 [7]	IC50 [4, 11]	EC50 [6, 12]	EC50 [6, 13]	EC50 [6, 14]	EC50 [6, 15]	EC50 [7, 16]	IC50 [8, 17]	EC50 [6, 18]	Selectivity PKG T618Q/PKG ([8]; Table S2)	also measured
C=CCNC1=C2C[C@@H](C)C[C@H](OC)[C@H](O)[C@@H](C)/C=C(\C)[C@H](OC(N)=O)[C@@H](OC)/C=C\C=C(/C)C(=O)NC(=CC1=O)C2=O [Compound 17-AAG, 17-N-allylamino-17-demethoxygeldanamycin, reference compound]																	Kd [1]: 15.8 µM; Kd [2]: 8.7 µM
NC1CCC(Nc2ccc3ncc(-c4cnc(Nc5ccccn5)c(F)c4)n3n2)CC1 (stereo not drawn) [Compound 20]	0.008 µM	trophozoite	Trophozoite	2.1	2.1	1.8	2										IC50 [4]: 0.012 µM; EC50 ([6]; Plasmodium falciparum, 3D7, 48 h, read-out: EC50 48 hours): 0.3 µM; EC50 ([6]; Plasmodium falciparum, 3D7, 48 h, read-out: EC50 after treatment for 48 h): 0.298 µM; EC50 ([6]; Plasmodium falciparum, 3D7, 96 h, read-out: EC50 96 hours): 0.14 µM; EC50 ([6]; Plasmodium falciparum, 3D7, 96 h, read-out: EC50 after treatment for 96 h): 0.142 µM; EC50 ([6]; Plasmodium falciparum, 3D7, 96 h, read-out: Parasite inhibition EC50, 3D7): 0.21 µM; EC50 ([7]; Plasmodium falciparum, 3D7, 96 h): 0.386 µM; IC50 [8]: 15.3 µM
CC(C)CCNc1ccc(-c2cnc3ccc(NC4CCN(C)C4)nn23)cn1 (stereo not drawn) [Compound 22]	0.074 µM	trophozoite (before)	Trophozoite	1.8	1.8	1.4	1	> 1 µM	0.546 µM	0.3 µM	0.215 µM	0.55 µM	0.303 µM	37.5 µM			Selectivity (PKG T618Q/PKG IC50 ratio) ([8]; Table 2): <38
Fc1cccnc1Nc1ncc(-c2cnc3ccc(NC4CCC(N5CCNCC5)CC4)nn23)cn1 (stereo not drawn) [Compound 28]	0.012 µM	late schizont (after)	Late schizont	4.4	4.4	10.8	11	0.003 µM	0.168 µM	0.038 µM	0.059 µM	0.17 µM	0.64 µM	31.7 µM	0.04 µM	12100	Stage of action ([5]; listed as Compound 28): arrest parasites in late schizogony; EC5048/EC5096 ratio ([6]; listed as Compound 28): less than 5
CC(C)CCNc1ncc(-c2cnc3ccc(NC4CCN(C)C4)nn23)cn1 (stereo not drawn) [Compound 31]		late schizont	Late schizont	7.0	7.0				1.66 µM	0.238 µM		1.66 µM			0.24 µM	21	IC50 ([3]; Table S2): 0.093 µM; IC50 [4, 19]: 0.287 µM; IC50 [8, 20]: 5.95 µM
CN(C)C1CCN(c2ccc3ncc(-c4cnc(Nc5ncccc5F)nc4)n3n2)C1 (stereo not drawn) [Compound 35]		late schizont	Late schizont	>1,000					> 1000 µM	0.809 µM					0.81 µM	10653	IC50 ([3]; Table S2): 0.017 µM; IC50 [4, 19]: 0.05 µM; IC50 [8, 20]: 528 µM
CN1CCC(CNc2ccc3ncc(-c4cnc(Nc5ncccc5F)nc4)n3n2)CC1 [Compound 38]	0.008 µM	late schizont	Late schizont	>1,000		11.8	12	0.004 µM	> 1000 µM	0.05 µM	0.073 µM		0.859 µM	43.5 µM		12187	
CC(C)(C)n1nc(Cc2cccc3ccccc23)c2c(N)ncnc21 [NM-PP1, 1-(1,1-dimethylethyl)-3-(1-naphthalenylmethyl)-1H-pyrazolo[3,4-d]pyrimidin-4-amine]																	EC50 [9]: 10.3 µM; EC50 [10]: 11.6 µM
